The term melting point denotes the temperature, or range, at which the solid turns liquid. The IC50 is the concentration at which inhibition is half-maximal. The low end stands for inhibition by little substance, the high end for a need for much substance.

Tested on in the first data set: not given
Assay: not given
Settings: not given
`COc1ccc(CS(=O)(=O)/C(C#N)=C/c2ccsc2)cc1` [Example 13] registered a melting point of 142 to 144 °C.

`NC(=O)/C(=C\c1cccc(Cl)c1Cl)S(=O)(=O)Cc1ccc(F)cc1` [Example 155]: the melting point was in the range of 188 to 193 °C.

Regarding `N#C/C(=C\c1ccccc1OC(F)F)S(=O)(=O)Cc1ccc(Br)cc1` [Example 14], the melting point fell in the range of 204 to 206 °C.

`COc1ccc(CS(=O)(=O)/C(C#N)=C/c2ccc(F)c(N)c2)cc1` [Example 6] gave a melting point of 146 to 148 °C.

Compound `COc1ccc(CS(=O)(=O)/C(=C/c2c(OC)cc(OC)cc2OC)C(N)=O)cc1` [Example 171] gave a melting point of 168 to 171 °C.

For `NC(=O)/C(=C\c1cccc(Cl)c1Cl)S(=O)(=O)Cc1ccc([N+](=O)[O-])cc1` [Example 169], the melting point lay within 200 to 202 °C.

`COc1cc(OC)c(/C=C(\[N+](=O)[O-])S(=O)(=O)c2ccc(Br)cc2)c(OC)c1` [Example 186] displayed a melting point of 184 to 186 °C.

For `COc1ccc(S(=O)(=O)/C(=C/c2c(OC)cc(OC)cc2OC)C(N)=O)cc1` [Example 182], the melting point lay within 172 to 175 °C.

As to `COc1ccc(CS(=O)(=O)/C(C#N)=C/c2ccc(OC)c(OC)c2)cc1` [Example 26], the melting point was in the range of 156 to 158 °C.

Compound `COc1ccc(CS(=O)(=O)/C(C#N)=C/c2ccc3c(c2)OCO3)cc1` [Example 27, (E)-2-[(4-methoxyphenyl)methanesulfonyl]-3-(1,3-benzodioxole-5-yl)acrylonitrile] displayed a melting point of 186 to 188 °C.

`COc1ccc(CS(=O)(=O)/C(C#N)=C/c2ccc(F)cc2)cc1` [Example 7] yielded a melting point of 171 to 173 °C.

Consider `COc1ccc(NS(=O)(=O)/C(C#N)=C/c2cc(OC)cc(OC)c2)cc1` [Example 201], for which the melting point was 167 to 168 °C.

In turn, `COc1cc(OC)c(/C=C(\C(N)=O)S(=O)(=O)Cc2ccc(Cl)cc2Cl)c(OC)c1` [Example 152] returned a melting point of 201 to 204 °C.

Take `Cc1ccc(C)c(/C=C(\C(N)=O)S(=O)(=O)Cc2ccc(F)cc2)c1` [Example 160]: the melting point fell in the range of 172 to 176 °C.

Consider `COc1ccc(CS(=O)(=O)/C(C#N)=C/c2ccc([N+](=O)[O-])cc2)cc1` [Example 10], for which the melting point was in the range of 174 to 176 °C.

Compound `NC(=O)/C(=C\c1ccc(Cl)cc1Cl)S(=O)(=O)Cc1ccc(Cl)cc1` [Example 165] yielded a melting point of 206 to 210 °C.

In turn, `CC(=O)c1ccc(/C=C(\C(N)=O)S(=O)(=O)Cc2ccc(Cl)cc2Cl)cc1` [Example 167] registered a melting point of 207 to 210 °C.

In turn, `COc1ccc(S(=O)(=O)/C(=C/c2ccc(F)cc2)C(N)=O)cc1` [Example 181] displayed a melting point of 154 to 156 °C.

In the case of `N#C/C(=C\c1ccc([N+](=O)[O-])cc1)S(=O)(=O)Cc1ccc(Br)cc1` [Example 31], the melting point lay within 138 to 142 °C.

`COc1ccc(CS(=O)(=O)/C(C#N)=C/c2ccccc2OC)cc1` [Example 9] displayed a melting point of 143 to 145 °C.

The compound `CCOc1ccc(/C=C(\C(N)=O)S(=O)(=O)Cc2ccc(Cl)cc2)cc1OC` [Example 158, (E)-2-[(4-chlorophenyl)methanesulfonyl]-3-(4-ethoxy-3-methoxyphenyl)acrylamide] showed a melting point of 195 to 197 °C.

In the case of `NC(=O)/C(=C\c1ccc(Br)cc1)S(=O)(=O)Cc1ccc(Cl)cc1Cl` [Example 153], the melting point was 195 to 196 °C.

On to `NC(=O)/C(=C\c1ccc(F)cc1Cl)S(=O)(=O)Cc1ccc(Cl)cc1` [Example 166], for which the melting point was 194 to 199 °C.

On to `NC(=O)/C(=C\c1cc(F)c(F)cc1F)S(=O)(=O)Cc1ccc(F)cc1` [Example 162], for which the melting point was in the range of 168 to 170 °C.

For the compound `Cc1ccc(C)c(/C=C(\C(N)=O)S(=O)(=O)Cc2ccc(Cl)cc2)c1` [Example 157], the melting point was 79 to 82 °C.

Take `NC(=O)/C(=C\c1ccc(Br)cc1)S(=O)(=O)Cc1ccc(F)cc1` [Example 161]: the melting point is 199 to 200 °C.

In turn, `COc1cc(OC)c(/C=C(\C(N)=O)S(=O)(=O)c2ccccc2)c(OC)c1` [Example 178] returned a melting point of 164 to 167 °C.

As to `Cc1cc(C)cc(/C=C(\C(N)=O)S(=O)(=O)Cc2ccc(Cl)cc2)c1` [Example 163], the melting point lay within 172 to 176 °C.

On to `COc1cc(OC)c(/C=C(\C#N)S(=O)(=O)Cc2ccc(OC)c([N+](=O)[O-])c2)c(OC)c1` [Example 34], for which the melting point fell in the range of 184 to 186 °C.

`CCOc1ccc(/C=C(\C(N)=O)S(=O)(=O)Cc2ccc([N+](=O)[O-])cc2)cc1OC` [Example 159, (E)-2-[(4-nitrophenyl)methanesulfonyl]-3-(4-ethoxy-3-methoxyphenyl)acrylamide] registered a melting point of 235 to 240 °C.

On to `COc1ccc(/C=C(\C(N)=O)S(=O)(=O)Cc2ccc(Cl)cc2Cl)cc1O` [Example 154, (E)-2-[(2,4-dichlorophenyl)methanesulfonyl]-3-(3-hydroxy-4-methoxyphenyl)acrylamide], for which the melting point is 185 to 189 °C.

For `COc1ccc(CS(=O)(=O)/C(C#N)=C/c2ccc(C#N)cc2F)cc1` [Example 17], the melting point was 112 to 114 °C.

With `CCOc1ccc(/C=C(\C(N)=O)S(=O)(=O)Cc2ccc(F)cc2)cc1OC` [Example 164, (E)-2-[(4-fluorophenyl)methanesulfonyl]-3-(4-ethoxy-3-methoxyphenyl)acrylamide], the melting point lay in the range of 197 to 202 °C.

In the case of `COc1ccc(CS(=O)(=O)/C(C#N)=C/c2ccoc2)cc1` [Example 12], the melting point was 150 to 153 °C.

The compound `N#C/C(=C\c1ccc(F)cc1F)S(=O)(=O)Cc1ccc(Br)cc1` [Example 4] displayed a melting point of 146 to 148 °C.

The compound `COc1ccc(NS(=O)(=O)/C(C#N)=C/c2c(OC)cccc2OC)cc1` [Example 193] had a melting point of 154 to 156 °C.

In turn, `NC(=O)/C(=C\c1ccc(Cl)cc1Cl)S(=O)(=O)Cc1ccccc1Cl` [Example 156] yielded a melting point of 158 to 164 °C.

For `Cc1ccc(/C=C(\C(N)=O)S(=O)(=O)Cc2ccc(Cl)cc2Cl)cc1C` [Example 151], the melting point lay within 193 to 196 °C.

As to `COc1cc(OC)c(/C=C(\[N+](=O)[O-])S(=O)(=O)c2ccccc2)c(OC)c1` [Example 187], the melting point is 176 to 180 °C.

`COc1ccc(CS(=O)(=O)/C(C#N)=C/c2ccc(O)c(O)c2)cc1OC` [Example 28] displayed a melting point of 196 to 198 °C.

Compound `CCOc1ccc(/C=C(\C(N)=O)S(=O)(=O)Cc2ccc(Cl)cc2Cl)cc1OC` [Example 168, (E)-2-[(2,4-dichlorophenyl)methanesulfonyl]-3-(4-ethoxy-3-methoxyphenyl)acrylamide] gave a melting point of 245 to 247 °C.

A further data set relates to DU145 (prostate cancer). The data set can be described thus: Effect on tumor cell lines, viable cell count by trypan blue exclusion (Latham et al.): DU145. Type of data set: cell-based. Particulars: Homo sapiens, DU-145, 96 h, DU145 prostate cancer cells, viable cell count 96 hours after treatment. As for the experimental part:
The effect of the compounds of the invention on tumor cells was determined by the assay described by Latham et al., Oncogene 12:827-837 (1996). Tumor cells DU145 (prostate cancer), K562 (chronic myelogenous leukaemia), BT20 (breast carcinoma), H157 (non small cell lung carcinoma), or DLD1 (colon carcinoma) were plated in 6-well dishes at a cell density of 1.0×10^5 cells per 35-mm^2 well. […] The total number of viable cells was determined 96 hours later by trypsinizing the wells and counting the number of viable cells, as determined by trypan blue exclusion, using a hemacytometer. Normal HFL cells were treated with the same compounds under the same conditions of concentration and time.
Consider `COc1ccc(CS(=O)(=O)/C(C#N)=C/c2ccc3[nH]c(=O)oc3c2)cc1OC` [Example 29], for which the IC50 was found to be 100 µM.

The compound `COc1cc(OC)c(/C=C(\[N+](=O)[O-])S(=O)(=O)c2ccc(Br)cc2)c(OC)c1` [Example 186] gave an IC50 of 25 µM.

Take `COc1ccc(CS(=O)(=O)/C(C#N)=C/c2ccc(F)c([N+](=O)[O-])c2)cc1` [Example 3]: the IC50 amounted to 50 µM.

`COc1ccc(CS(=O)(=O)/C(C#N)=C/c2ccc3c(c2)OCO3)cc1` [Example 27, (E)-2-[(4-methoxyphenyl)methanesulfonyl]-3-(1,3-benzodioxole-5-yl)acrylonitrile] came in with an IC50 of 100 µM.

With `COc1ccc(CS(=O)(=O)/C(C#N)=C/c2ccc(F)cc2)cc1` [Example 7], 100 µM corresponded to half-maximal inhibition (IC50).

As to `COc1ccc(NS(=O)(=O)/C(C#N)=C/c2cc(OC)cc(OC)c2)cc1` [Example 201], the IC50 is more than 100 µM.

`COc1ccc(CS(=O)(=O)/C(C#N)=C/c2c(F)c(F)c(F)c(F)c2F)cc1OC` [Example 32] registered an IC50 of 10 µM.

These data come from patent US20090191193A1, “Aryl Vinyl Sulfides, Sulfones, Sulfoxides and Sulfonamides, Derivatives Thereof and Therapeutic Uses Thereof” (TEMPLE UNIVERSITY-OF THE COMMONWEALTH SYSTEM OF HIGHER …, priority 2006, published 2009).
